# Test results reported in US9969744B2, “Compounds for use in cognition improvement” (FUNDACIÓN PARA LA INVESTIGACIÓN MÉDICA APLICADA, priority 2014, dated 2018).
# Marks after values point to notes of the source that are not given here.
# How the values were obtained:
# [1] = system: carboxyl terminal fragment AβPP (C99); assay: AD-related markers in Tg2576 neurons: APP processing (C99); format: cell-based, mouse; conditions: Tg2576 primary neurons, compound concentration 50 nM
# Description: The effects of the compounds on amyloid pathology were analysed in primary cultures after 21 days in-vitro (DIV) of neurons derived from the hippocampus and cortex of Tg2576 mouse embryos. Tg2576 mice express the human 695-aa isoform of APP (hAPP) containing the Swedish double mutation, which favours A3 production. Neurons were treated for two days and collected at day 3, 24 h after the last treatment. First it was analysed the effect of the compounds on hAPP processing by the amyloidogenic pathway by measuring the carboxyl terminal fragment AβPP (C99), which is the precursor of Aβ42. In this case the reported EC50, Table 2 (below), means a 50% decrease in C99 levels over basal (vehicle, no treatment).
# To analyze APP-derived fragments and p-Tau levels in primary neuronal cultures, cells were collected in a buffer containing SDS (2%), Tris-HCl (10 mM, pH 7.4), protease inhibitors (1 mM phenylmethylsulfonyl fluoride (PMSF) and Complete Protease Inhibitor Cocktail: Roche Diagnostics) and phosphatase inhibitors (0.1 mM Na3VO4 and 1 mM NaF). The homogenates were sonicated for 2 min and centrifuged at 100,000×g for 1 h. Aliquots of the supernatant were frozen at […] and their protein concentrations determined by the Bradford method using the Bio-Rad protein assay (Bio-Rad, Hercules, Calif., USA). […]
# pCREB = assay: In-vivo pCREB in hippocampus of wild type mice; conditions: 1 h after single dose 40 mg/kg i.p.
# Description: Another group of animals received the vehicle (1/1/8, v:v:v, DMSO/Tween 20/saline). One hour later, mice were sacrificed by cervical dislocation and their hippocampus was quickly dissected from the brains. Total tissue homogenates were obtained by homogenizing the hippocampus in a cold lysis buffer with protease inhibitors (0.2 M NaCl, 0.1 M HEPES, 10% glycerol, 200 mM NaF, 2 mM Na4P2O7, 5 mM EDTA, 1 mM EGTA, 2 mM DTT, 0.5 mM PMSF, 1 mM Na3VO4 and Complete Protease Inhibitor Cocktail, Roche Diagnostics). The homogenate was then centrifuged at 14,000×g at 4° C. for 20 min and the supernatant aliquoted and stored at −80° C. Total protein concentrations were determined using the BioRad Bradford protein assay (BioRad Laboratories). Protein samples were analyzed as described in the “in vitro” section.
# aged-Tg2576 mice = assay: Memory function in aged-Tg2576 mice: Fear Conditioning (FC); format: in vivo; conditions: Tg2576 mice (16-18 month), chronic treatment 3-5 weeks, 20 mg/Kg i.p.; standard error in brackets
# Description: The effect on memory function of compounds of the invention was studied in Tg2576 mice (16-18 month) after a chronic treatment of 3-5 weeks by using two different behavioral tasks: the Fear Conditioning (FC) and the Morris water maze (MWM) test, Table 5 (below)
# The behavioural procedure of FC task involved three phases: habituation, training and testing. During habituation phase, mice were habituated to the conditioning box (context) for 5 min with no stimuli presented. 24 hours later (training phase), mice were placed in the training chamber and allowed to explore for 2 min, afterward, a footshock (0.3 mA) unconditioned stimulus was administered (2 s) and 30 s after mice were returned to their home cage. Mice were returned to the conditioning chamber 24 h after training and allowed to explore the context for 2 min, during which freezing behavior was recorded (contextual long term memory). Freezing scores were expressed as percentages. The conditioning procedure was carried out in a StartFear system (Panlab S.L., Barcelona, Spain) that allows recording and analysis of the signal generated by the animal movement through a high sensitivity Weight Transducer system. The analogical signal is transmitted to the FREEZING and STARTLE software modulated through the load cell unit for recording purposes and posterior analysis in terms of activity/immobility.
smiles,measurement,setting,value
"CCCc1nn(C)c2c(=O)[nH]c(-c3cc(Cc4ccc(C(=O)Nc5ccccc5N)cc4)ccc3OCC)nc12 [Example 1-11, N-(2-aminophenyl)-4-[[4-ethoxy-3-(1-methyl-7-oxo-3-propyl-6H-pyrazolo[4,3-d]pyrimidin-5-yl)phenyl]methyl]benzamide]",decrease in C99 levels over basal,[1],++ (basal x0.2≤(++)<basal x0.4 (reduction between 20% and 40%))
same,pCREB increment vs basal,pCREB,+++ (basal x2≤(+++)<basal x3)
same,FC (% freezing),aged-Tg2576 mice,59.65 (9.2)^c %
